Entries after “also recorded” stand apart in the source; their conditions may differ.
Assays:
Format in all cases: cell-based
BRD4 [1] = target: T1, BRD4 (Homo sapiens, UniProt O60885); assay: CURE-PRO-mediated BRD4 degradation with MDM2 ligands, WES (ProteinSimple), HCT116 cells; parameters: endogenous in cells; details: HCT116, 24 h, WES; for BRD4 degradation, in combination with MDM2 ligand 8310: 1:1 with 8310, 10 μM; for BRD4 degradation, in combination with MDM2 ligand 8312: 1:1 with 8312, 10 μM
Method: All cell lines were purchased from ATCC or DSMZ and grown at 37° C. with 5% CO2. Human HeLa cells were cultured in complete growth medium (Dulbecco's modified Eagle's medium (DMEM) supplemented with 10% FBS); MCF7 cells were cultured in complete growth medium (Dulbecco's modified Eagle's medium (DMEM) supplemented with 10% FBS and 0.01 mg/ml human recombinant insulin (Sigma Aldrich); Namalwa and MOLM-13 cells were cultured in complete growth medium (RPMI 1640 medium supplemented with 10% FBS); MV-4-11 were cultured in complete growth medium (Iscove's Modified Dulbecco's medium, supplemented with 10% FBS); HCT116 cells were cultured in complete growth medium (McCoy's 5a Medium supplemented with 10% FBS). For cellular degradation of BRD4 studies, cells were seeded in a 12-well plate at 70-80% confluency, allowed to attach overnight, and incubated with the indicated compounds for the indicated time. When indicated, a 15-minute pretreatment with 10 μM pomalidomide, 10 μM VHL298, 10 μM Nutlin3a, 1 μM MG-132 or 1 μM Carfilzomib was performed before the addition of CURE-PROs. For washout studies, after CURE-PRO treatment, media was aspirated and incubated with complete medium for the indicated time before lysis.
WES Simple analysis was performed on WES system (ProteinSimple-Biotechne) according to the manufacturer's instructions. Total protein concentrations of cell lysates were determined by the Pierce BCA kit (Thermo Fisher). 3 μL of 0.3 μg/μL of the protein lysate was loaded onto a 12- to 230-kDa WES assay plate (ProteinSimple) where 300 nL sample was withdrawn through a capillary, subjected to electrophoretic separation of proteins by size, and followed by the simultaneous, HRP-based detection of proteins using the Anti-Rabbit Detection Module (Proteinsimple: #DM-001). The electropherograms were checked then the automatic peak detection was manually corrected if it was required.
HCT116 cells (3×10^6) were treated for 24 hours with the compounds solubilized in DMSO. Compounds were added at 1 μM-10 μM each. Standardized protein samples were electrophoresed and imaged as described in the WES ProteinSimple section above. FIGS. 59, 60, and 61 depict the concentration-dependence of CURE-PRO-mediated BRD4 degradation using MDM2 ligands.
HCT116 cells (3×10^6) were treated for 24 hours with the compounds solubilized in DMSO. Compounds were added at 1 μM-10 μM each. Standardized protein samples were electrophoresed and imaged as described in the WES ProteinSimple section above. FIGS. 62 and 63 depict the concentration-dependence of CURE-PRO-mediated BRD4 degradation using MDM2 ligands.
HCT116 cells (3×10^6) were treated for 24 hours with the compounds solubilized in DMSO. CURE-PRO monomers were added at 10 μM each and the proteasomal inhibitors at 1 μM. Standardized protein samples were electrophoresed and imaged as described in the WES ProteinSimple section above. FIG. 68 depicts the dependence of the proteasome for CURE-PRO-mediated BRD4 degradation.

BRD4 [2] = target: T1, BRD4; assay: Summary of BRD4 degradation by CURE-PRO pairs, estimated from Western Blot or WES (Proteinsimple); parameters: endogenous in cells; details: for Degradation of BRD4 in combination with MDM2 ligand [drawing 423] / Degradation of BRD4 in combination with MDM2 ligand [drawing 424]: Table 5, aryl-boronic acid-containing MDM2 ligand; for Degradation of BRD4 in combination with MDM2 ligand [drawing 423]: first drawing (8310); for Degradation of BRD4 in combination with MDM2 ligand [drawing 424]: second drawing (8312)
Description: A black check mark indicates efficacy of 30% to 70% or higher protein degradation.

BRD3 = target: T2, BRD3 (Homo sapiens, UniProt Q15059); assay: CURE-PRO-mediated BRD3 degradation with MDM2 ligands, Western blot, HCT116 cells; details: HCT116, 24 h, 1:1, 10 μM
T2 construct: endogenous in cells; host or cells: HCT116
T2 sequence (Q15059 whole entry): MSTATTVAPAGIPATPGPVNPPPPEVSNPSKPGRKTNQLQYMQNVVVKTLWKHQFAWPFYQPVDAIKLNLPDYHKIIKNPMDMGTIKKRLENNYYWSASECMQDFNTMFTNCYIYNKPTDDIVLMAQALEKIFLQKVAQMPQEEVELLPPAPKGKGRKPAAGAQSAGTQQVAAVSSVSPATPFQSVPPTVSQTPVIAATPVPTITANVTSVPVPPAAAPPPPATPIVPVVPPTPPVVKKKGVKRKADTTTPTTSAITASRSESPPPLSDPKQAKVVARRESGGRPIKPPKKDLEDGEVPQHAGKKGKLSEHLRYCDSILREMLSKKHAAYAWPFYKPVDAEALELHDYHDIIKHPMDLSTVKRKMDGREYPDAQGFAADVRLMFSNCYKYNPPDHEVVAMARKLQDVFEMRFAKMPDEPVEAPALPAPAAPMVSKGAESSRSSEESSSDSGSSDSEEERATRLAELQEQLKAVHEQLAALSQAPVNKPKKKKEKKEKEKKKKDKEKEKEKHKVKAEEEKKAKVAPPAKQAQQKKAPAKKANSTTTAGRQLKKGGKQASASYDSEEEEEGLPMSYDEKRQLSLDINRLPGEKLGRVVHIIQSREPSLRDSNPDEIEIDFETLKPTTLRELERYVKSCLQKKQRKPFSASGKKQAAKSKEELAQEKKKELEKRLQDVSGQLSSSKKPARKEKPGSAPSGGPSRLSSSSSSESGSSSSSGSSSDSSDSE
Description: Anti-BRD4 (13440, 1:1,000 dilution for Western Blot and 1:25 dilution for ProteinSimple); Anti-BRD2 (5848 1:1,000 dilution for Western Blot and 1:25 dilution for ProteinSimple); β-Actin (3700, 1:2,000 dilution for Western Blot), β-Actin (4970, 1:50 dilution for ProteinSimple) anti-mouse IgG-HRP, and anti-rabbit IgG-HRP antibodies were purchased Cell Signaling Technology. Anti-GAPDH (600-401-A33, 1:100 dilution for ProteinSimple) was purchased from Rockland Immunochemicals, Inc. Anti-BRD3 (sc-81202, 1:200 dilution for Western Blot) was purchased from Santa Cruz Biotechnology.
HeLa, MCF7, or HCT116 cells (2.5-3×10^6) were treated for 24 hours with the indicated compounds solubilized in DMSO. The cells were washed in ice-cold PBS and were then lysed in RIPA lysis buffer (150 mM NaCl, 5 mM EDTA, 1% NP-40, 0.5% sodium deoxycholate, 0.1% SDS, 50 mM Tris, pH 8.0.) with Roche protease inhibitor complete cocktail and phosphatase inhibitors (10 mM sodium fluoride, 10 mM sodium pyrophosphate, 1 mM sodium orthovanadate and 20 mM β-glycerophosphate). The total protein concentrations were determined by Bradford Protein Assay and 10-20 μg of protein was loaded onto 4-15% Tris-Glycine gradient gels (Biorad). […] Signal was detected with ECL Western Blotting Substrate (Pierce) and X-ray film processed with a Konica SRX-101 X-ray film processor or captured by Bio-Rad's Chemidoc Imaging system. […]

Compound | BRD4 degradation, in combination with MDM2 ligand 8313 (BRD4 [1]; 1:1 with 8313, 1-10 μM each) | BRD4 degradation, in combination with MDM2 ligand 8314 (BRD4 [1]; 1:1 with 8314, 1-10 μM each) | Degradation of BRD4 in combination with CRBN ligand [drawing 372] (BRD4 [2]; Table 1, CRBN ligand, third drawing (8066)) | Degradation of BRD4 in combination with CRBN ligand [drawing 370] (BRD4 [2]; Table 1, aromatic 1,2-diol- or hindered cis-1,2-diol-containing CRBN ligand, first drawing (8046)) | Degradation of BRD4 in combination with VHL ligand [drawing 397] (BRD4 [2]; Table 3, aromatic 1,2-diol-containing VHL ligand, second drawing (8305)) | BRD3 degradation, in combination with MDM2 ligands 8310 and 8312 (BRD3) | BRD4 degradation, in combination with MDM2 ligand 8310 (BRD4 [1]) | BRD4 degradation, in combination with MDM2 ligand 8312 (BRD4 [1]) | Degradation of BRD4 in combination with MDM2 ligand [drawing 423] (BRD4 [2]) | Degradation of BRD4 in combination with MDM2 ligand [drawing 424] (BRD4 [2]) | Degradation of BRD4 in combination with CRBN ligand [drawing 407] (BRD4 [2]; Table 4, aryl-boronic acid-containing CRBN ligand, first drawing (by text: 8048))
CCNC(=O)C[C@@H]1N=C(c2ccc(Cl)cc2)c2cc(OCCCCC(=O)Nc3cccc(B(O)O)c3)ccc2-n2c(C)nnc21 [BRD-E20, (3-(5-(((4S)-6-(4-chlorophenyl)-4-(2-(ethylamino)-2-oxoethyl)-1-methyl-4H-benzo[f][1,2,4]triazolo[4,3-a][1,4]diazepin-8-yl)oxy)pentanamido)phenyl)boronic acid] | had no effect on BRD4 protein levels | caused partial loss of the BRD4 protein; also recorded: Degradation is observed | ✓ (A black check mark indicates efficacy of 30% to 70% or higher protein degradation) | ✓ (A black check mark indicates efficacy of 30% to 70% or higher protein degradation) | ✓ (A black check mark indicates efficacy of 30% to 70% or higher protein degradation) |  |  |  |  |  | 
CCNC(=O)C[C@@H]1N=C(c2ccc(Cl)cc2)c2cc(OCCNC(=O)c3cccc(O)c3O)ccc2-n2c(C)nnc21 [BRD-N25] |  |  |  |  |  | degradation of BRD3; also recorded: Degradation is evident | caused BRD4 degradation; also recorded: marked BRD4 degradation | caused BRD4 degradation | ✓ (A black check mark indicates efficacy of 30% to 70% or higher protein degradation) | ✓ (A black check mark indicates efficacy of 30% to 70% or higher protein degradation) | 
CCNC(=O)C[C@@H]1N=C(c2ccc(Cl)cc2)c2cc(OCCOCCNC(=O)c3cccc(O)c3O)ccc2-n2c(C)nnc21 [BRD-N39, N-(2-(2-(((4S)-6-(4-chlorophenyl)-4-(2-(ethylamino)-2-oxoethyl)-1-methyl-4H-benzo[f][1,2,4]triazolo[4,3-a][1,4]diazepin-8-yl)oxy)ethoxy)ethyl)-2,3-dihydroxybenzamide] |  |  |  |  |  | degradation of BRD3; also recorded: Degradation is evident | caused BRD4 degradation | caused BRD4 degradation | ✓ (A black check mark indicates efficacy of 30% to 70% or higher protein degradation) | ✓ (A black check mark indicates efficacy of 30% to 70% or higher protein degradation) | ✓ (A black check mark indicates efficacy of 30% to 70% or higher protein degradation)

Source: patent US20230277553A1, “THERAPEUTIC COMPOSITION OF CURE-PRO COMPOUNDS FOR TARGETED DEGRADATION OF BET DOMAIN PROTEINS, AND METHODS OF MAKING AND USAGE” (CORNELL UNIVERSITY, priority 2020, published 2023)
